Laboratory results reported in publication PMC6222292 (Computational and Structural Biotechnology Journal, 2018).

Target: T1, soluble epoxide hydrolase (sEH) (Homo sapiens, UniProt P34913)
T1 sequence (P34913 1-555): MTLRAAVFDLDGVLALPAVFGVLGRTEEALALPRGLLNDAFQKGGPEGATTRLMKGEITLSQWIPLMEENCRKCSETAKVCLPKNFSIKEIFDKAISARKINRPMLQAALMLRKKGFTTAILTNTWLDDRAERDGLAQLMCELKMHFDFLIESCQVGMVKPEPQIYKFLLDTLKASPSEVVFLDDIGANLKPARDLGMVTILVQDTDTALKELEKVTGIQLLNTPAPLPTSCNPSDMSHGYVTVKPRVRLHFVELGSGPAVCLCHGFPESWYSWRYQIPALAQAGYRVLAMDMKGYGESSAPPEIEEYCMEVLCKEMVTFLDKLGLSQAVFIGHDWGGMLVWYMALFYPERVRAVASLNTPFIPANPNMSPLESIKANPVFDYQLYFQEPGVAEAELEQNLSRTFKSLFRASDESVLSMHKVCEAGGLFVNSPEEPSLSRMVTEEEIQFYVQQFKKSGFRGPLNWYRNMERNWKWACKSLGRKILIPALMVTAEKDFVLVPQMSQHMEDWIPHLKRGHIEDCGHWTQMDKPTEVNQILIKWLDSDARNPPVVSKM
Assay: fluorescent PHOME hydrolysis assay
Format: biochemical

Compound	IC50 [µM]
O=C(/C=C/c1ccc(O)cc1)NCCc1ccc(O)cc1 [compound 1, N-trans-coumaroyltyramine]	9 ± 0.8
COc1cc(/C=C/C(=O)NCCc2ccc(O)cc2)ccc1O [compound 2, N-trans-feruloyltyramine]	10.4 ± 1.1
